Key:
[1] = in vivo
Procedure: (§1) The experimental technique was based on ocular fundus fluorescence: Five patients were used in this study. […] Then every hour, the conjunctivae of the two eyes were exposed every hour to a 10% fluorescein solution. 8 hours later the fundus fluorescence in the two eyes was measured and analysed.

[2] = ocular fundus fluorescence after topical drug carrier plus fluorescein eye drops; details: exposure of the conjunctival fornices to a 10% fluorescein solution; 7 hours later
Procedure: as §1

[3] = tested on: macular oedema secondary to CRVO; details: injected into the eye (intravitreal); cited from earlier work

| Molecule | anterior segment fluorescence compared with the eye receiving only fluorescein [1] | ocular fundus fluorescence compared with the eye receiving only fluorescein [1] | effect on macular oedema secondary to CRVO [3] | further results |
| --- | --- | --- | --- | --- |
| Brc1c(NC2=NCCN2)ccc2nccnc12 [brimonidine] | stronger | stronger | – | – |
| O=C1OC2(c3ccc(O)cc3Oc3cc(O)ccc32)c2ccccc21 [fluorescein] | – | – | – | maximum vitreous concentration [2]: 1.5e-12 g/mL |
| C[C@]12C=CC(=O)C=C1CC[C@H]1[C@@H]3C[C@@H](O)[C@](O)(C(=O)CO)[C@@]3(C)C[C@H](O)[C@@]12F [triancinolone (Aristocert®), triancinolone] | – | – | efficacy | – |
| bevacizumab [Avastin®] | – | – | improved | – |

Second part, led by results:

| anterior segment fluorescence compared with the eye receiving only fluorescein [1] | ocular fundus fluorescence compared with the eye receiving only fluorescein [1] | Molecule | effect on macular oedema secondary to CRVO [3] | further results |
| --- | --- | --- | --- | --- |
| – | stronger | CNC[C@H](O)c1cccc(O)c1 [neosynephrine] | – | – |
| the same | stronger | CC(C)(C)NC[C@H](O)COc1nsnc1N1CCOCC1 [timolol] | – | – |

Reference: US20110104155A1, “DRUG DELIVERY TO THE ANTERIOR AND POSTERIOR SEGMENTS OF THE EYE USING EYE DROPS” (Raouf Rekik, priority 2008, published 2011)
